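96-well plates; 48 h exposure; 5 concentrations. Endpoints by linear interpolation between flanking doses. Not reached: highest tested concentration assigned. GI50 is the concentration that inhibits growth by half. TGI: concentration producing complete growth inhibition.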
Legend:
Test in all cases: growth of human tumour cells (NCI), 48 h
NCI-H23 lung = tested on: NCI-H23 lung
SK-MEL-2 melanoma = tested on: SK-MEL-2 melanoma
HS 578T breast = tested on: HS 578T breast
HOP-62 NSCLC = tested on: HOP-62 NSCLC
SF-539 CNS = tested on: SF-539 CNS
MDA-MB-435 = tested on: MDA-MB-435
ACHN renal = tested on: ACHN renal
OVCAR-4 ovarian = tested on: OVCAR-4 ovarian
TK-10 renal = tested on: TK-10 renal
EKVX NSCLC = tested on: EKVX NSCLC

Compound | TGI (NCI-H23 lung) | TGI (SK-MEL-2 melanoma) | TGI (HS 578T breast) | TGI (HOP-62 NSCLC) | TGI (SF-539 CNS) | TGI (MDA-MB-435) | TGI (ACHN renal) | TGI (OVCAR-4 ovarian) | TGI (TK-10 renal) | TGI (EKVX NSCLC) | GI50 (NCI-H23 lung) | GI50 (SK-MEL-2 melanoma) | GI50 (HS 578T breast) | GI50 (HOP-62 NSCLC) | GI50 (SF-539 CNS) | GI50 (MDA-MB-435) | GI50 (ACHN renal) | GI50 (OVCAR-4 ovarian) | GI50 (TK-10 renal) | GI50 (EKVX NSCLC)
C[n+]1ccccc1/C1=c2\cc/c([nH]2)=C(\c2cccc[n+]2C)C2=N/C(=C(/c3cccc[n+]3C)C3C=CC(N3)/C(c3cccc[n+]3C)=C3/C=CC1=N3)C=C2 | > 100 µM | > 100 µM | > 100 µM | > 100 µM | > 100 µM | > 100 µM | > 100 µM | > 100 µM | > 100 µM | > 100 µM |  |  |  |  |  |  |  |  |  | 
COCOc1cc(OC)ccc1C/C(=N/O)C(=O)OC | > 100 µM | > 100 µM | > 100 µM | > 100 µM | > 100 µM | > 100 µM | > 100 µM | > 100 µM | > 100 µM | > 100 µM |  |  |  |  |  |  |  |  |  | 
CN(C)c1ccc(/C=C(\NC(=O)c2ccccc2)C(=O)NC(Cc2c[nH]c3ccccc23)C(=O)O)cc1 (stereo not given) | > 100 µM | > 100 µM | > 100 µM | > 100 µM | > 100 µM | > 100 µM | > 100 µM | > 100 µM | > 100 µM | > 100 µM |  |  |  |  |  |  |  |  |  | 
COc1ccccc1C1C(C#N)=C(N)Oc2cc(O)ccc21 (stereo not given) | 49.4 µM | > 100 µM | > 100 µM | 60.2 µM | 66 µM | 9.52 µM | 84 µM | 85.9 µM | > 100 µM | > 100 µM | 17.6 µM | 23 µM | 34.1 µM | 15.8 µM | 24.7 µM | 4.1 µM | 22.3 µM | 25.3 µM | 27.6 µM | 34.6 µM
Cc1cc2nnc(C(N)=O)c(N)c2cc1C | > 100 µM | > 100 µM | > 100 µM | > 100 µM | > 100 µM | > 100 µM | > 100 µM | > 100 µM | > 100 µM | > 100 µM |  |  |  |  |  |  |  |  |  | 
CN(C)N=Nc1ccc2[nH]c(=O)[nH]c2c1 | > 100 µM | > 100 µM | > 100 µM | > 100 µM | > 100 µM | > 100 µM | > 100 µM | > 100 µM | > 100 µM | > 100 µM |  |  |  |  |  |  |  |  |  | 
Cc1ccc(C(=O)N/N=C2/C(=O)c3c4ccccc4cc4cccc2c34)cc1 | 77.8 µM | > 100 µM | 58.1 µM | 43.4 µM | > 92.9 µM | > 73.4 µM | 39.3 µM | > 100 µM | > 100 µM | > 100 µM |  |  |  |  |  |  |  |  |  | 
O=C(Nc1ccc2cc3ccccc3cc2c1)c1cc2c(cc1Cl)Sc1nccn1S2(=O)=O | > 100 µM | > 100 µM | > 100 µM | > 100 µM | 33.8 µM | > 100 µM | > 100 µM | > 100 µM | 70.7 µM | > 100 µM |  |  |  |  |  |  |  |  |  | 
CCOC(=O)/C=C(/C(=O)OCC)n1ccc(=O)n(Cc2cnnn2CCCCOC(C)=O)c1=O | > 100 µM | > 100 µM | > 100 µM | > 100 µM | > 100 µM | > 100 µM | > 100 µM | > 100 µM | > 100 µM | > 100 µM |  |  |  |  |  |  |  |  |  | 
N#Cc1c(-c2ccc([N+](=O)[O-])cc2)cc(-c2ccc(Nc3ccnc4cc(Cl)ccc34)cc2)nc1N | 65.6 µM | 43.5 µM | 29.9 µM | 29.7 µM | 55.4 µM | 17.5 µM | > 72.6 µM | 15.2 µM | 43 µM | 38 µM |  |  |  |  |  |  |  |  |  | 
COc1cc(OC)c(C2(c3c(OC(C)C)c(=O)c3=O)SCCCS2)cc1OC | > 100 µM | > 100 µM | > 100 µM | > 100 µM | > 100 µM | > 100 µM | > 100 µM | > 100 µM | > 100 µM | > 100 µM |  |  |  |  |  |  |  |  |  | 
O=C(C1OC1c1cccc([N+](=O)[O-])c1)C12CC3CC(CC(C3)C1)C2 (stereo not given) | 17.7 µM | 28.6 µM | 14.3 µM | 24.3 µM | 22.6 µM | 12.2 µM | 23 µM | 15.4 µM | 32.7 µM | 27 µM |  |  |  |  |  |  |  |  |  | 
Cc1cc(N(CCC#N)CCC#N)ccc1/C(N=Nc1ccc([N+](=O)[O-])cc1)=N\NC(=O)c1ccccc1 | > 100 µM | > 100 µM | 64.5 µM | > 100 µM | 92.9 µM | > 100 µM | > 100 µM | > 100 µM | > 100 µM | > 100 µM |  |  |  |  |  |  |  |  |  | 
NC(N)=N/N=C/c1c(-c2cc([N+](=O)[O-])c(Cl)cc2Cl)nc2n1CCS2 | 48.3 µM | 9.45 µM | > 100 µM | > 100 µM | > 100 µM | 74.3 µM | > 100 µM | 33.9 µM | 45.9 µM | > 100 µM |  |  |  |  |  |  |  |  |  | 
CCN(CC)CCN1C(=O)C(=O)N(c2cccc3ccccc23)C1=O | > 10 µM | > 10 µM | > 10 µM | > 10 µM | > 10 µM | > 10 µM | > 10 µM | > 10 µM | > 10 µM | > 10 µM |  |  |  |  |  |  |  |  |  | 
O=C1NC(=Nc2ccccc2Cl)N/C1=C\c1ccc(Cl)cc1Cl | > 100 µM | 58.4 µM | > 100 µM | > 100 µM | > 100 µM | > 100 µM | > 100 µM | > 100 µM | > 100 µM | > 100 µM |  |  |  |  |  |  |  |  |  | 
O=C1NC(=Nc2ccccc2)C(=Nc2ccccc2)N1c1ccccc1 | 30.8 µM | 29.3 µM | 42.9 µM | 32.5 µM | 31.5 µM | 29.7 µM | 30.6 µM | 33.1 µM | 30.8 µM | 31.5 µM |  |  |  |  |  |  |  |  |  | 
CCNC(=S)NNC(=O)CSc1nc2ccc(I)cc2c(=O)n1Cc1ccccc1 | > 100 µM | > 94.9 µM | > 100 µM | > 100 µM | > 100 µM | > 100 µM | > 24.4 µM | > 95.5 µM | > 100 µM | > 88 µM |  |  |  |  |  |  |  |  |  | 
C/C(=N\NC(N)=S)c1sc(-n2nc(-c3ccccc3)cc2-c2ccccc2)nc1C | > 100 µM | > 100 µM | > 100 µM | > 100 µM | > 100 µM | > 100 µM | > 100 µM | > 100 µM | > 100 µM | > 100 µM |  |  |  |  |  |  |  |  |  | 
COc1ccc(/C=C/C(=O)Oc2ccccc2OC)cc1 | > 100 µM | > 95.3 µM | > 89.6 µM | > 62.4 µM | > 100 µM | > 80.5 µM | > 59.4 µM | > 60.7 µM | > 100 µM | > 100 µM |  |  |  |  |  |  |  |  |  | 
COC(=O)CNC(=O)CCC(C)[C@H]1CCC2C3C(C[C@H](OC(C)=O)[C@@]21C)[C@@]1(C)CCC2(C[C@H]1C[C@H]3OC(C)=O)OOC1(CCCCC1)OO2 (stereo not given in full) | 3.64 µM | 6.49 µM | 6.7 µM | 1.73 µM | 3.75 µM | 4.06 µM | 3.85 µM | 3.66 µM | 24.2 µM | 3.74 µM |  |  |  |  |  |  |  |  |  | 
C[n+]1cn(-c2nc3ccccc3nc2[N-]S(=O)(=O)c2ccccc2)c2ccccc21 | > 100 µM | > 100 µM | > 100 µM | > 100 µM | > 100 µM | > 100 µM | > 100 µM | > 100 µM | > 100 µM | > 100 µM |  |  |  |  |  |  |  |  |  | 
C1=NCCOCCN=Cc2ccc(cc2)OCc2cccc(n2)COc2ccc1cc2 | > 100 µM | > 100 µM | > 100 µM | > 100 µM | > 100 µM | > 100 µM | > 100 µM | > 100 µM | > 100 µM | > 100 µM |  |  |  |  |  |  |  |  |  | 
CC(C)=C[C@@H]1O[C@H](O)[C@@H]([C@H]2CC[C@@]3(C)[C@@H]4CC[C@H]5C(C)(C)C(=O)CC[C@@]56C[C@@]46CC[C@]23C)[C@@H]1O | 32.9 µM | 42.2 µM | 48.4 µM | 62.2 µM | 28 µM | 41.7 µM | 32 µM | 35 µM | 30.1 µM | 33 µM |  |  |  |  |  |  |  |  |  | 
[N-]=[N+]=Nc1ccc2c(c1)Sc1ccccc1N2CCCCN1CCN(C(=O)CCNC(=O)Cc2ccc(C(=O)c3ccccc3)cc2)CC1 | > 44 µM | 8.97 µM | > 100 µM | > 100 µM | 17.2 µM | 6.44 µM | > 60.5 µM | > 25.6 µM | > 75.6 µM | > 100 µM |  |  |  |  |  |  |  |  |  | 
NCCNC(=O)CN(CC(=O)O)C1CCCCC1N(CC(=O)O)CC(=O)O (stereo not given) | > 100 µM | > 100 µM | > 100 µM | > 100 µM | > 100 µM | > 100 µM | > 100 µM | > 100 µM | > 100 µM | > 100 µM |  |  |  |  |  |  |  |  |  | 
C=CC[C@]1(C2=NC(C)(C)CO2)c2ccccc2-c2ccccc2[C@H]1C(C)=O | > 45.3 µM | 15.4 µM | 25.1 µM | 32.7 µM | 25.1 µM | 14.7 µM | > 45.9 µM | > 69 µM | 34.4 µM | 40.6 µM |  |  |  |  |  |  |  |  |  | 
